Source: US7683034B2, “Use of enzyme inhibitors of aminopeptidase N and/or dipeptidylpeptidase IV” (IMTM GmbH, priority 2002, dated 2010)

Tested on: immortalized human sebaceous cell line SZ95
Assay: Inhibition of DNA synthesis (3[H]-thymidine incorporation) of SZ95 sebaceous cells
Format: cell-based
Conditions: 48 h incubation with inhibitor, then 6 h 3[H]-methyl-thymidine incorporation; dose-dependent (FIG. 3)
Experimental: SZ95 cells were 48 h incubated with the above-mentioned inhibitors and subsequently the DNA synthesis was determined by the measurement of the ^ 3[H]-Thymidine incorporation as described in Reinhold et al. (Reinhold, D. et al.: Inhibitors of dipeptidyl peptidase IV induce secretion of transforming growth factor β1 in PWM-stimulated PBMNC and T-cells; Immunology, 1997, 91; 354-360).
The cells were 48 h incubated with inhibitors in the above-mentioned concentrations. Subsequently ^3[H]-Methyl-thymidin was added to the culture medium. After 6 further hours the amount of ^3[H]-Thymidine incorporated in the DNA was measured.

SMILES: N[C@@H](CCCCNC(=O)OCc1ccc([N+](=O)[O-])cc1)C(=O)N1CCSC1 [Lys[Z(NO2)]-thiazolidide]
- DNA synthesis of the immortalized human sebaceous cell line SZ95: inhibited

SMILES: CCCCC[C@H](CC(=O)NO)C(=O)N[C@H](C(=O)N1CCC[C@H]1CO)C(C)C [actinonin]
- DNA synthesis of the immortalized human sebaceous cell line SZ95: inhibited
